Source: patent publication US8889676B2, “3-ureidoisoquinolin-8-yl derivatives” (Actelion Pharmaceuticals Ltd., priority 2011, dated 2014)
Converted amounts (≈) assume the structure as drawn.

System: S. pneumoniae ATCC 49619
Assay: Minimal inhibitory concentration (MIC) by broth microdilution (CLSI M7-A7)
Assay type: cell-based, Streptococcus pneumoniae
Settings: Streptococcus pneumoniae, ATCC49619; cation-adjusted Mueller Hinton Broth supplemented with 3% (v/v) lysed horse blood; microdilution method
Procedure: Minimal inhibitory concentrations (MICs; mg/l) were determined in cation-adjusted MuellerHinton Broth (supplemented with 3% (v/v) lysed horse blood for testing Streptococcus pneumoniae) by a microdilution method following the description given in “Methods for Dilution Antimicrobial Susceptibility Tests for Bacteria that Grow Aerobically”, Approved standard, 7th ed., a Clinical and Laboratory Standards Institute (CLSI) Document M7-A7, Wayne, Pa., USA, 2006.

Which MIC does the source give for `CCNC(=O)Nc1cc2c(-c3ccncc3)ccc(CNC(=O)OCc3cccnc3)c2cn1` [Example 42, [3-(3-ethyl-ureido)-5-pyridin-4-yl-isoquinolin-8-ylmethyl]-carbamic acid pyridin-3-ylmethyl ester] here?
The MIC was 0.5 µg/mL (≈ 1.1 µM).

With `CCNC(=O)Nc1cc2cccc(CNC(=O)OCc3ccccc3)c2cn1.Cl` [Example 36, [3-(3-ethyl-ureido)-isoquinolin-8-ylmethyl]-carbamic acid benzyl ester hydrochloride] as the molecule, how does the MIC read?
Its MIC is 4 µg/mL.

With `CCNC(=O)Nc1cc2c(-c3ccnc(CCC(=O)NC)c3)ccc(CNC(=O)OC)c2cn1` [Example 195, {3-(3-ethyl-ureido)-5-[2-(2-methylcarbamoyl-ethyl)-pyridin-4-yl]-isoquinolin-8-ylmethyl}-carbamic acid methyl ester] as the molecule, how does the MIC read?
Its MIC is 4 µg/mL (≈ 8.61 µM).

With `CCNC(=O)Nc1cc2c(-c3ccnc(OC(C)(C)C)c3)ccc(CNC(=O)OC)c2cn1` [Example 167, [5-(2-tert-butoxy-pyridin-4-yl)-3-(3-ethyl-ureido)-isoquinolin-8-ylmethyl]-carbamic acid methyl ester] as the molecule, how does the MIC read?
Its MIC is 4 µg/mL (≈ 8.86 µM).

`CCNC(=O)Nc1cc2c(-c3ccncc3)ccc(CNC(=O)Cc3c[nH]cn3)c2cn1` [Example 60, N-[3-(3-ethyl-ureido)-5-pyridin-4-yl-isoquinolin-8-ylmethyl]-2-(1H-imidazol-4-yl)-acetamide] was tested. Which MIC did it give?
The MIC was 8 µg/mL (≈ 18.6 µM).

Which MIC does the source give for `CCNC(=O)Nc1cc2c(-c3ccnc(CC)c3)ccc(CNC(=O)OC)c2cn1` [Example 170, [5-(2-ethyl-pyridin-4-yl)-3-(3-ethyl-ureido)-isoquinolin-8-ylmethyl]-carbamic acid methyl ester] here?
Its MIC is 1 µg/mL (≈ 2.45 µM).

With `CCNC(=O)Nc1cc2c(-c3ccnc(N4CCOCC4)c3)ccc(CNC(=O)OC)c2cn1` [Example 169, [3-(3-ethyl-ureido)-5-(2-morpholin-4-yl-pyridin-4-yl)-isoquinolin-8-ylmethyl]-carbamic acid methyl ester] as the molecule, how does the MIC read?
Its MIC is 4 µg/mL (≈ 8.61 µM).

`CCNC(=O)Nc1cc2c(-c3ccncc3)ccc(CNC(=O)OCC(C)C)c2cn1.Cl` [Example 99, [3-(3-ethyl-ureido)-5-pyridin-4-yl-isoquinolin-8-ylmethyl]-carbamic acid isobutyl ester hydrochloride] was tested. Which MIC did it give?
Its MIC is 0.5 µg/mL.

`C#CCOC(=O)NCc1ccc(-c2ccnnc2)c2cc(NC(=O)NCC)ncc12` [Example 127, [3-(3-ethyl-ureido)-5-pyridazin-4-yl-isoquinolin-8-ylmethyl]-carbamic acid prop-2-ynyl ester] was tested. Which MIC did it give?
Its MIC is 8 µg/mL (≈ 19.8 µM).

Which MIC does the source give for `CCNC(=O)Nc1cc2cccc(CNC(=O)COC)c2cn1` [Example 15, N-[3-(3-ethyl-ureido)-isoquinolin-8-ylmethyl]-2-methoxy-acetamide] here?
The MIC was 4 µg/mL (≈ 12.6 µM).

With `CCNC(=O)Nc1cc2cccc(CNC(=O)OCc3cncn3C)c2cn1.Cl` [Example 38, [3-(3-ethyl-ureido)-isoquinolin-8-ylmethyl]-carbamic acid 3-methyl-3H-imidazol-4-ylmethyl ester hydrochloride] as the molecule, how does the MIC read?
Its MIC is 8 µg/mL.

How did the MIC turn out when `CCNC(=O)Nc1cc2c(-c3ccncc3)ccc(CNC(=O)CC(C)C)c2cn1` [Example 66, N-[3-(3-ethyl-ureido)-5-pyridin-4-yl-isoquinolin-8-ylmethyl]-3-methyl-butyramide] was run?
The MIC was 0.25 µg/mL (≈ 0.617 µM).

For `CCNC(=O)Nc1cc2c(-c3ccncc3)ccc(CNC(=O)CCCOC)c2cn1` [Example 95, N-[3-(3-ethyl-ureido)-5-pyridin-4-yl-isoquinolin-8-ylmethyl]-4-methoxy-butyramide], which MIC is on record?
The MIC was 0.5 µg/mL (≈ 1.19 µM).

How did the MIC turn out when `CCNC(=O)Nc1cc2cccc(CNC(=O)CC3CC3)c2cn1` [Example 7, 2-cyclopropyl-N-[3-(3-ethyl-ureido)-isoquinolin-8-ylmethyl]-acetamide] was run?
The MIC was 2 µg/mL (≈ 6.13 µM).

`CCNC(=O)Nc1cc2cccc(CNC(=O)OCc3ccncc3)c2cn1.Cl` [Example 25, [3-(3-ethyl-ureido)-isoquinolin-8-ylmethyl]-carbamic acid pyridin-4-ylmethyl ester hydrochloride] was tested. Which MIC did it give?
Its MIC is 2 µg/mL.

`CCNC(=O)Nc1cc2c(-c3ccncc3)ccc(CNC(=O)OCC(N)=O)c2cn1.Cl` [Example 96, [3-(3-ethyl-ureido)-5-pyridin-4-yl-isoquinolin-8-ylmethyl]-carbamic acid carbamoylmethyl ester hydrochloride] was tested. Which MIC did it give?
Its MIC is 2 µg/mL.

For `CCNC(=O)Nc1cc2c(-c3ccnc(C)c3)ccc(CNC(C)=O)c2cn1` [Example 153, N-[3-(3-ethyl-ureido)-5-(2-methyl-pyridin-4-yl)-isoquinolin-8-ylmethyl]-acetamide], which MIC is on record?
Its MIC is 1 µg/mL (≈ 2.65 µM).

Which MIC does the source give for `CCNC(=O)Nc1cc2c(-c3ccncc3)ccc(CNC(=O)OCC#CCN)c2cn1` [Example 109, [3-(3-ethyl-ureido)-5-pyridin-4-yl-isoquinolin-8-ylmethyl]-carbamic acid 4-amino-but-2-ynyl ester] here?
Its MIC is 2 µg/mL (≈ 4.62 µM).

`CCNC(=O)Nc1cc2c(-c3ccncc3)ccc(CNC(=O)OCC[C@H]3CCCNC3)c2cn1.Cl` [Example 100, [3-(3-ethyl-ureido)-5-pyridin-4-yl-isoquinolin-8-ylmethyl]-carbamic acid (R)-2-piperidin-3-yl-ethyl ester hydrochloride] was tested. Which MIC did it give?
Its MIC is 8 µg/mL.

For `CCNC(=O)Nc1cc2cccc(CNC(=O)OCc3ccn(C)n3)c2cn1.Cl` [Example 35, [3-(3-ethyl-ureido)-isoquinolin-8-ylmethyl]-carbamic acid (1-methyl-1H-pyrazol-3-yl)methyl ester hydrochloride], which MIC is on record?
The MIC was 4 µg/mL.

With `C#CCOC(=O)N(C)Cc1cccc2cc(NC(=O)NCC)ncc12` [Example 44, [3-(3-ethyl-ureido)-isoquinolin-8-ylmethyl]-methyl-carbamic acid prop-2-ynyl ester] as the molecule, how does the MIC read?
Its MIC is 8 µg/mL (≈ 23.5 µM).

Which MIC does the source give for `CCNC(=O)Nc1cc2cccc(CNC(=O)OCc3cncnc3)c2cn1.Cl` [Example 26, [3-(3-ethyl-ureido)-isoquinolin-8-ylmethyl]-carbamic acid pyrimidin-5-ylmethyl ester hydrochloride] here?
The MIC was 4 µg/mL.

Which MIC does the source give for `C#CCOC(=O)NCc1ccc(-c2cncnc2)c2cc(NC(=O)NCC)ncc12.Cl` [Example 140, [3-(3-ethyl-ureido)-5-pyrimidin-5-yl-isoquinolin-8-ylmethyl]-carbamic acid prop-2-ynyl ester hydrochloride] here?
Its MIC is 1 µg/mL.

How did the MIC turn out when `CCNC(=O)Nc1cc2c(-c3ccnc(C(N)=O)c3)ccc(CNC(=O)OCCOC)c2cn1` [Example 179, [5-(2-carbamoyl-pyridin-4-yl)-3-(3-ethyl-ureido)-isoquinolin-8-ylmethyl]-carbamic acid 2-methoxy-ethyl ester] was run?
Its MIC is 8 µg/mL (≈ 17.1 µM).

With `CCNC(=O)Nc1cc2c(-c3ccnc(N4CCCC4)c3)ccc(CNC(=O)OC)c2cn1` [Example 171, [3-(3-ethyl-ureido)-5-(2-pyrrolidin-1-yl-pyridin-4-yl)-isoquinolin-8-ylmethyl]-carbamic acid methyl ester] as the molecule, how does the MIC read?
Its MIC is 4 µg/mL (≈ 8.92 µM).

With `CCNC(=O)Nc1cc2c(-c3ccncc3)ccc(CNC(=O)OCCN3CCCCC3)c2cn1.Cl` [Example 98, [3-(3-ethyl-ureido)-5-pyridin-4-yl-isoquinolin-8-ylmethyl]-carbamic acid 2-piperidin-1-yl-ethyl ester hydrochloride] as the molecule, how does the MIC read?
The MIC was 4 µg/mL.

With `CCNC(=O)Nc1cc2c(-c3ccncc3)ccc(CNC(=O)CCC(N)=O)c2cn1` [Example 54, N-[3-(3-ethyl-ureido)-5-pyridin-4-yl-isoquinolin-8-ylmethyl]-succinamide] as the molecule, how does the MIC read?
The MIC was 4 µg/mL (≈ 9.51 µM).

For `CCNC(=O)Nc1cc2c(-c3ccnc(C)c3)ccc(CNC(=O)OCCOC)c2cn1` [Example 119, [3-(3-ethyl-ureido)-5-(2-methyl-pyridin-4-yl)-isoquinolin-8-ylmethyl]-carbamic acid 2-methoxy-ethyl ester], which MIC is on record?
Its MIC is 0.5 µg/mL (≈ 1.14 µM).

For `CCNC(=O)Nc1cc2c(-c3ccncc3)ccc(CNC(=O)OC(C)C)c2cn1` [Example 77, [3-(3-ethyl-ureido)-5-pyridin-4-yl-isoquinolin-8-ylmethyl]-carbamic acid isopropyl ester], which MIC is on record?
The MIC was 0.5 µg/mL (≈ 1.23 µM).

How did the MIC turn out when `CCNC(=O)Nc1cc2c(-c3ccncc3)ccc(CNC(=O)CCNC(=O)OC(C)(C)C)c2cn1` [Example 49, (2-{[3-(3-ethyl-ureido)-5-pyridin-4-yl-isoquinolin-8-ylmethyl]-carbamoyl}-ethyl)-carbamic acid tert-butyl ester] was run?
The MIC was 0.5 µg/mL (≈ 1.02 µM).

For `CCNC(=O)Nc1cc2cccc(CNC(=O)c3ccncc3)c2cn1` [Example 2, N-[3-(3-ethyl-ureido)-isoquinolin-8-ylmethyl]-isonicotinamide], which MIC is on record?
Its MIC is 2 µg/mL (≈ 5.72 µM).

With `CCNC(=O)Nc1cc2cccc(CNC(=O)C3CCCCC3)c2cn1` [Example 6, cyclohexanecarboxylic acid [3-(3-ethyl-ureido)-isoquinolin-8-ylmethyl]-amide] as the molecule, how does the MIC read?
Its MIC is 4 µg/mL (≈ 11.3 µM).

For `C#CCCOC(=O)NCc1cccc2cc(NC(=O)NCC)ncc12.Cl` [Example 40, [3-(3-ethyl-ureido)-isoquinolin-8-ylmethyl]-carbamic acid but-3-ynyl ester hydrochloride], which MIC is on record?
The MIC was 4 µg/mL.

`CCNC(=O)Nc1cc2c(-c3ccnc(C)c3C)ccc(CNC(=O)OC)c2cn1.Cl` [Example 189, [5-(2,3-dimethyl-pyridin-4-yl)-3-(3-ethyl-ureido)-isoquinolin-8-ylmethyl]-carbamic acid methyl ester hydrochloride] was tested. Which MIC did it give?
The MIC was 8 µg/mL.

How did the MIC turn out when `CCNC(=O)Nc1cc2c(-c3ccncc3)ccc(CNC(=O)OCCCOC)c2cn1.Cl` [Example 94, [3-(3-ethyl-ureido)-5-pyridin-4-yl-isoquinolin-8-ylmethyl]-carbamic acid 3-methoxy-propyl ester hydrochloride] was run?
Its MIC is 0.5 µg/mL.

Which MIC does the source give for `CCNC(=O)Nc1cc2c(-c3ccncc3)ccc(CNC(=O)OC[C@H]3CC[C@H](CN)CC3)c2cn1.Cl` [Example 101, trans-[3-(3-ethyl-ureido)-5-pyridin-4-yl-isoquinolin-8-ylmethyl]-carbamic acid 4-(aminomethyl)-(cyclohexylmethyl) ester hydrochloride] here?
The MIC was 2 µg/mL.

For `CCNC(=O)Nc1cc2c(-c3ccnc(C)c3)ccc(CNC(=O)OC(C)(C)C)c2cn1` [Example 176, [3-(3-ethyl-ureido)-5-(2-methyl-pyridin-4-yl)-isoquinolin-8-ylmethyl]-carbamic acid tert-butyl ester], which MIC is on record?
Its MIC is 1 µg/mL (≈ 2.3 µM).
